{"source": "patent US20220144853A1", "about": "“IMIDAZOLINE DERIVATIVES AS CXCR4 MODULATORS” (Université de Paris, priority 2019, published 2022)", "key": {"[1]": {"test_system": "IFN production by activated immune cells (PBMC)", "test": "IFN production by R848-activated PBMC from healthy donors, STING-37 reporter cell line", "type": "cell-based, human", "conditions": "different concentrations, R848, STING-37 reporter, FIG. 1", "procedure": "1) The blood from healthy donors was obtained from two sources. Either from “Etablissement Français du Sang” (convention #07/CABANEL/106), Paris, France or from the Apheresis and Blood Donation Unit at the Institute of Transfusion Medicine and Immunogenetics (IKT), Ulm, Germany after being approved by the Institutional Review Board at Ulm University.\n(§1) In vitro experiments were performed using human peripheral blood mononuclear cells (PBMCs) isolated by density centrifugation from peripheral blood leukocyte separation medium (Cambrex, Gaithersburg, Md.).\n(§2) PBMCs were cultured in RPMI 1640 (Invitrogen, Gaithersburg, Md.) (R10) containing 10% heat-inactivated fetal bovine serum, 100 U/mL Penicilium and 100 μg/mL Streptomycin (1% Pen-Strep) and 1 mM glutamine (Hyclone, Logan, Utah).\n1) The PBMCs used herein were prepared as described in part A “immune cells preparation”, section 1) above. PBMCs were seeded at 2.10^6/mL. […]\n(§3) 1) To quantify the secretion of functional IFN, a biological assay based on a stable cell line where luciferase reporter gene is controlled by five Interferon-Stimulated Response Elements (STING37 cell line) was used. […] After 24 h of culture, luciferase activity was determined by adding 50 μL of Bright-Glo reagents (Promega) to culture wells and measuring bioluminescence with a luminometer."}, "[2]": {"test_system": "IFN production by activated immune cells (PBMC) from lupus patients", "test": "IFN production by R848-activated PBMC from lupus patients, STING-37 reporter cell line", "type": "cell-based, human", "conditions": "10 μM, PBMC from three SLE patients, FIG. 2", "procedure": "(§4) Material from Juvenile Dermatomyositis and Lupus patients were obtained from Necker Hospital, Paris, France or from Imagine Institute, Paris, France. The study was approved by the Conité des Protection des Personnes (ID-RCB/EUDRACT: 2014-A01017-40 and 2018-A01358-47) in France.\nas §1, §2\n1) The PBMCs used herein were prepared as described in part A “immune cells preparation”, section 1) above. PBMCs were seeded at 2.10^6/mL. […] Cells were then stimulated with the TLR7/8 agonist resiquimod—R848 (Invivogen) at 5 μg/mL. […]\nas §3"}, "[3]": {"test_system": "TNFα production by monocytes (CD14+ cells)", "test": "TNFα production by monocytes from juvenile dermatomyositis patients, intracellular staining by flow cytometry", "type": "cell-based, human", "conditions": "PBMCs from 2 juvenile dermatomyositis patients; R848 overnight; FIG. 3", "procedure": "as §4, §1\n(§5) 1) The PBMCs used herein were prepared as described in part A “immune cells preparation”, section 1) above. PBMCs were seeded at 2.10^6/mL. […] Cells were then stimulated with the TLR7/8 agonist resiquimod—R848 (Invivogen) at 5 μg/mL. When stated, AMD (20 μM) (Sigma-Aldrich, MO, USA) was added to the cells 1 h before incubation with example 1.\nR848-stimulated PBMCs were washed in PBS and then incubated with a viability stain (Zombie-Aqua, Biolegend) for 30 min at 4° C. After washing, the cells were resuspended in PBS containing 2% FCS and 2 mM EDTA and stained with the extracellular mix using APC-anti-BDCA4 (clone 12C2), FITC-anti-CD123 (clone 6H6), PerCP.cy5.5-anti-CD56 (clone 5.1H11), BV421-anti-HLADR (clone L243), PE.cy7-anti-CD19 (clone 4G7), APC-cy.7-anti-CD14 (clone M5E2) all from Biolegend and used at 1/200 and V500-anti-CD3 (BD Bioscience, clone SP34-2, 1/200). […]"}, "[4]": {"test_system": "TNFα production by monocytes (CD14+ cells)", "test": "Requirement of CXCR4 (siRNA knockdown or AMD3100) for the effect on TNFα production by monocytes from healthy donors", "type": "cell-based, human", "procedure": "Monocytes were purified from PBMCs by positive selection with the CD14 microbeads (Miltenyi Biotec) and MACS column.\nas §5\nIsolated monocytes were seeded at 10^5 cells/100 μL in 96-well plates and incubated at 37° C. Cyclophilin B (control) and CXCR4 small interfering RNA (siRNA) (Smart Pool, Dharmarcon) was diluted in DOTAP (Roche Applied Sciences). The mix was gently mixed and incubated at room temperature for 15 minutes. After incubation, the mix was added to cells in culture at a final concentration of 160 nM. Finally, cells were incubated at 37° C. for 24 hours before stimulation.\nR848-stimulated PBMCs were washed in PBS and then incubated with a viability stain (Zombie-Aqua, Biolegend) for 30 min at 4° C. After washing, the cells were resuspended in PBS containing 2% FCS and 2 mM EDTA and stained with the extracellular mix using APC-anti-BDCA4 (clone 12C2), FITC-anti-CD123 (clone 6H6), PerCP.cy5.5-anti-CD56 (clone 5.1H11), BV421-anti-HLADR (clone L243), PE.cy7-anti-CD19 (clone 4G7), APC-cy.7-anti-CD14 (clone M5E2) all from Biolegend and used at 1/200 and V500-anti-CD3 (BD Bioscience, clone SP34-2, 1/200). For the TNFα intracellular staining a Fixation/Permeabilization Solution Kit (BD Cytofix/Cytoperm) was used according to the manufacturer's protocol. Briefly, the cells were fixed for 10 min at 4° C. with 100 μL of the Fixation/Permeabilization solution then washed and stained in 100 μL of the BD Perm/Wash Buffer containing TNFα-APC (Miltenyi, 1/500) antibody for 1 h at 4° C. Data acquisition was performed on a Canto II flow cytometer using Diva software (BD Biosciences, San Jose, Calif.). FlowJo software (Treestar, Ashland, Oreg.) was used to analyze data."}, "[5]": {"biological_target": "T1, human CXCR4 (hCXCR4) receptor (Homo sapiens, UniProt P61073)", "T1 construct": "expressed in transfected cells; host or cells: HEK-293 T cells, transient co-transfection with polyethylenimine", "T1 sequence (P61073 whole entry)": "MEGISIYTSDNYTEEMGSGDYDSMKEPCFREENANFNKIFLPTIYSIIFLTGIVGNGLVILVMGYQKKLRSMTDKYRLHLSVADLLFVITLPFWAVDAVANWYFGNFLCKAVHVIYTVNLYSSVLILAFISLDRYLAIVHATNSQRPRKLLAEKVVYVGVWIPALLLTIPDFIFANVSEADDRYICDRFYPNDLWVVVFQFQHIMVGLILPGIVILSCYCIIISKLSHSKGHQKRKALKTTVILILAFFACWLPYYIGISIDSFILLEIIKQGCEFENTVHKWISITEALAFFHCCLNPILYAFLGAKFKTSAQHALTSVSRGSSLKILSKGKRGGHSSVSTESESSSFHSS", "test": "BRET assay of antagonist activity on the CXCR4-CXCL12 signaling pathway in transfected HEK-293 T cells", "type": "cell-based", "conditions": "Gαi1, Gαi2, Gαi3, GαoB or Gαz, EC80 CXCL12, FIG. 6", "procedure": "Examples of the present invention were tested for their antagonist activity on human CXCR4 (hCXCR4) receptor transiently over-expressed in HEK-293 T cells. Compounds exert antagonist activity if they decrease the action of CXCL12 on the receptor.\nHEK-293 T cells are maintained in Dulbecco's Modified Eagle's Medium supplemented with 10% Foetal Calf Serum, 1% Penicillin/Streptomycin at 37° C./5% CO2. […] After transfection, cells are cultured for 48 h at 37° C./5% CO2.\nOn the day of the assay, cells are detached using trypsin 0.05%, resuspended in assay buffer (1.8 mM CaCl2, 1 mM MgCl2, 2.7 mM KCl, 137 mM NaCl, 0.4 mM NaH2PO4, 5.5 mM D-Glucose, 11.9 mM NaHCO3, 25 mM Hepes) and seeded in 384 well plate at a density of 20,000 cells per well.\nCells are first incubated for 10 minutes with the compound alone. Then, cells are stimulated by an EC80 CXCL12 concentration for additional 10 minutes and luminescence is recorded. […] Antagonist activity is evaluated in comparison to basal signals evoked by EC80 CXCL12 alone.\nFor IC50 determination, a dose-response test is performed using 20 concentrations (ranging over 6 logs) of each compound. Dose-response curves are fitted using the sigmoidal dose-response (variable slope) analysis in GraphPad Prism software (GraphPad Software) and IC50 of antagonist activity is calculated. […]"}, "[6]": {"test_system": "IFN production by activated PBMCs", "test": "IFN production by R848-activated PBMCs from healthy donors, twINNE reporter cell line", "type": "cell-based, human", "conditions": "means of two results over 2 healthy donors, R848 5 μg/mL, IT1t: mean over all experiments, read-out: IC50 of anti-inflammatory activity (IFN production)", "how_it_was_run": "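Human PBMCs (4.10^6/mL, RPMI/10% FBS, 37° C) stimulated with R848 at 5 μg/mL; supernatants collected after 24 h. Functional IFN measured on twINNE cells (ISRE-driven luciferase reporter) after 24 h culture by bioluminescence; IC50 from variable-slope dose-response fits.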"}, "IL-1β": {"test_system": "IL-1β", "test": "Cytokine production by R848-activated PBMCs, LEGENDplex Human Inflammation panel 1: IL-1β", "type": "cell-based", "conditions": "PBMCs from 2 healthy donors, R848 overnight, read-out: IC50 (μM) 1L-1β", "procedure": "(§6) 2) The PBMCs used herein were prepared as described in part A “immune cells preparation”, section 2) above. PBMCs were seeded at 4.10^6/mL. […] Cells were then stimulated with the TLR7/8 agonist resiquimod—R848 (Sigma-Aldrich, MO, USA) at 5 μg/mL.\n(§7) Cytokine expression levels were assessed using LEGENDplex Human inflammation panel 1 Kit (BioLegend, California, USA), which is a bead-based multiplex assay, using fluorescence-encoded beads. […] First, supernatants of R848-stimulated PBMCs were harvested after 24 h of stimulation and frozen at −20° C. for storage. Supernatants were dispensed into a 96-well V-bottom plate. Protocol pursued as per manufacturer recommendations (Manual for BioLegend LEGENDplex, Multi-Analyte Flow Assay Kit, Human Inflammation Panel 1, version 750000393_R01)."}, "IFN-γ": {"test_system": "IFN-γ", "test": "Cytokine production by R848-activated PBMCs, LEGENDplex Human Inflammation panel 1: IFN-γ", "type": "cell-based", "conditions": "PBMCs from 2 healthy donors, R848 overnight", "procedure": "as §6, §7"}, "TNF-α": {"test_system": "TNF-α", "test": "Cytokine production by R848-activated PBMCs, LEGENDplex Human Inflammation panel 1: TNF-α", "type": "cell-based", "conditions": "PBMCs from 2 healthy donors, R848 overnight", "procedure": "as §6, §7"}, "IL-10": {"test_system": "IL-10", "test": "Cytokine production by R848-activated PBMCs, LEGENDplex Human Inflammation panel 1: IL-10", "type": "cell-based", "conditions": "PBMCs from 2 healthy donors, R848 overnight", "procedure": "as §6, §7"}, "IL-12p70": {"test_system": "IL-12p70", "test": "Cytokine production by R848-activated PBMCs, LEGENDplex Human Inflammation panel 1: IL-12p70", "type": "cell-based", "conditions": "PBMCs from 2 healthy donors, R848 overnight", "procedure": "as §6, §7"}, "IL-18": {"test_system": "IL-18", "test": "Cytokine production by R848-activated PBMCs, LEGENDplex Human Inflammation panel 1: IL-18", "type": "cell-based", "conditions": "PBMCs from 2 healthy donors, R848 overnight", "procedure": "as §6, §7"}, "IL-23": {"test_system": "IL-23", "test": "Cytokine production by R848-activated PBMCs, LEGENDplex Human Inflammation panel 1: IL-23", "type": "cell-based", "conditions": "PBMCs from 2 healthy donors, R848 overnight", "procedure": "as §6, §7"}, "[7]": {"test_system": "MCP-1, IL-6, IL-8 and IL-33", "test": "Cytokine production by R848-activated PBMCs, LEGENDplex: other inflammatory cytokines", "type": "cell-based, human", "conditions": "PBMCs from two healthy donors; R848 5 μg/mL", "procedure": "as §6, §7"}}, "note": "Where a name gives a salt, the structure may show the parent alone."}
{"smiles": "CC1(C)CN2C(CSC3=NC4CCCCC4N3)=CSC2=N1", "note": "(stereo not drawn) [Example 1, 3-(((3a,4,5,6,7,7a-hexahydro-1H-benzo[d]imidazol-2-yl)thio)methyl)-6,6-dimethyl-5,6-dihydroimidazo[2,1-b]thiazole dihydrochloride]", "values": [{"measurement": "reduction of IFN production by activated PBMCs", "setting": "[1]", "value": 100, "unit": "%"}, {"measurement": "IFN production by activated PBMCs", "setting": "[2]", "value": "level similar to the one of unstimulated negative controls"}, {"measurement": "TNF-α production in CD14+ monocytes", "setting": "[3]", "value": "strongly inhibited"}, {"measurement": "TNFα production by activated monocytes in the presence of the example after pre-incubation with AMD3100", "setting": "[4]; AMD3100 20 μM 1 h, example 1 5 μM or example 2 1 μM, R848, FIG. 5B", "value": "restored"}, {"measurement": "TNFα production by activated monocytes in the presence of the example after CXCR4 siRNA", "setting": "[4]; siCXCR4 160 nM 24 h, example 1 5 μM, R848, FIG. 5A", "value": "restored"}, {"measurement": "antagonist activity: recruitment of G proteins induced by the hCXCR4-CXCL12 interaction", "setting": "[5]", "value": "significantly lower than IT1t"}]}
{"smiles": "CC1(C)CN2C(CSC(=NC3CCCCC3)NC3CCCCC3)=CSC2=N1", "note": "[IT1t, reference compound]", "values": [{"measurement": "IC50", "setting": "[6]", "value": 31, "unit": "µM"}, {"measurement": "IC50", "setting": "IL-1β", "value": 38, "unit": "µM"}, {"measurement": "IC50", "setting": "IFN-γ", "value": 24, "unit": "µM"}, {"measurement": "IC50", "setting": "TNF-α", "value": 48, "unit": "µM"}, {"measurement": "IC50", "setting": "IL-10", "value": 20, "unit": "µM"}, {"measurement": "IC50", "setting": "IL-12p70", "value": 16, "unit": "µM"}, {"measurement": "IC50", "setting": "IL-18", "value": 9.7, "unit": "µM"}, {"measurement": "IC50", "setting": "IL-23", "value": 14, "unit": "µM"}, {"measurement": "inhibition on other inflammatory cytokines such as MCP-1, IL-6, IL-8 and IL-33", "setting": "[7]", "value": "no or poor inhibition"}]}
